For data set [1], the target named is T1, factor Xa (Homo sapiens, UniProt P00742). In words: In vitro Factor Xa assay (Test 1a), chromogenic substrate S-2765. The format is biochemical. Details: purchased Enzyme Research Laboratories, Inc; South Bend, Ind. The conditions noted are these: Factor Xa inhibitory activity; Ki from IC50 corrected for substrate competition; 0.5 nM enzyme, 140 μM S-2765, 25° C. An excerpt:
The ability of a compound of formula I to inhibit factor Xa, thrombin, plasmin, elastase and trypsin may be assessed by determining the concentration of compound of formula I that inhibits enzyme activity by 50% (IC50). Purified enzymes are used in chromogenic assays. To determine the inhibition constant, the IC50 value is corrected for competition with substrate using the formula:
Ki=IC50×(1/{1+((substrate concentration)/substrate Km)})
where Km is the Michaelis-Menten-constant (Y.-C. Chen and W.H. Prusoff, Biochem. Pharmacol. 22: […] (1973), which is incorporated herein by reference).
TBS-PEG buffer (50 mM Tris-Cl, pH 7.8, 200 mM NaCl, 0.05% (w/v) PEG-8000, 0.02% (w/v) NaN3) is used for this assay. The IC50 is determined by combining in appropriate wells of a Costar half-area microtiter plate 25 μl human factor Xa (Enzyme Research Laboratories, Inc.; South Bend, Ind.) in TBS-PEG; 40 μl 10% (v/v) DMSO in TBS-PEG (uninhibited control) or various concentrations of the compound to be tested diluted in 10% (v/v) DMSO in TBS-PEG; and substrate S-2765 (N-benzyloxycarbonyl-D-Arg-Gly-L-Arg-p-nitroanilide; Kabi Pharmacia, Inc.; Franklin Ohio) in TBS-PEG.
The assays are performed by pre-incubating the compound of formula I plus enzyme for 10 min, then the assay is initiated by adding substrate to obtain a final volume of 100 μl. The initial velocity of chromogenic substrate hydrolysis is measured by the change in absorbance at 405 nm using a Bio-tek Instruments kinetic plate reader (Ceres UV900HDi) at 25° C. during the linear portion of the time course (usually 1.5 min after addition of substrate). The concentration of inhibitor that causes a 50% decrease in the rate of substrate hydrolysis is predicted by linear regression after plotting the relative rates of hydrolysis (compared to the uninhibited control) versus the log of the compound of formula I concentration. The enzyme concentration is 0.5 nM and substrate concentration is 140 μM.

Data set [2] has as its target T1, factor Xa. The following applies: cited from earlier work.
In data set [3] the test system is thrombin and factor Xa. The following applies: rate of inactivation, thrombin relative to factor Xa; cited from earlier work.

These results are taken from patent US6395737B1, “Malonic acid derivatives, processes for their preparation, for their use and pharmaceutical compositions containing them” (Aventis Pharma Deutschland GmbH, priority 1999, dated 2002).

Counter-ions that a name gives are not always drawn. Like-named read-outs stand apart in the source and are kept apart here.

T1 sequence (P00742 235-488 limits assumed): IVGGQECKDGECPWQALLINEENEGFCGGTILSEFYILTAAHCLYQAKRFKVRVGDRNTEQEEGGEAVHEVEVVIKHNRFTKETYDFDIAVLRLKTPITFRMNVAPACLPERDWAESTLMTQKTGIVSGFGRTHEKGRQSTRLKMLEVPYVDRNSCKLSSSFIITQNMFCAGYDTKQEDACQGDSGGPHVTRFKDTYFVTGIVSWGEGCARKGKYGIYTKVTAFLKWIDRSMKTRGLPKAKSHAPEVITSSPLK
T1 sequence (P00742 41-179 partner limits assumed): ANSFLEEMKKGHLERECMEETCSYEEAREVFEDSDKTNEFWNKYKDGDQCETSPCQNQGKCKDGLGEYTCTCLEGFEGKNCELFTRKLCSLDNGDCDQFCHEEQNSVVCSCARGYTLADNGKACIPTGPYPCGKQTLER

Take `CC(C)(C)OC(=O)N1CCN(CCNC(=O)[C@@H](NC(=O)C(Cc2ccc(C(=N)N)cc2)C(=O)NCc2ccccc2)C2CCCCC2)CC1.O=C(O)C(F)(F)F` (stereo partly shown): the melting point (commonly the temperature, or range, at which the solid turns liquid) lay within 125 to 128 °C.
Same read-out and setting: the figure for `N=C(N)c1ccc(CC(C(=O)NCc2ccccc2)C(=O)N[C@H](C(=O)NCCN2CCNCC2)C2CCCCC2)cc1.O=C(O)C(F)(F)F` (stereo partly shown) is 196 °C (dec.).
`CN(C)C(=O)[C@@H](Cc1ccc(C(=N)N)cc1)C(=O)N[C@H](C(=O)NCC1CCN(C(=N)N)CC1)C1CCCCC1` [Example 113, 2-(S)-(4-Carbamimidoyl-benzyl)-N-{(S)-[(1-carbamimidoyl-piperidin-4-ylmethyl)-carbamoyl]-cyclohexyl-methyl}-N′,N′-dimethyl-malonamide hydrochloric acid salt, less polar diastereomer]: the Ki (commonly a dissociation constant, usually derived from enzyme kinetics or from competition with a known ligand) in data set [1] came out at 3 nM.
The same measure, in the same setting: the figure for `CN(C)C(=O)C(Cc1ccc(C(=N)N)cc1)C(=O)N[C@H](C(=O)NCC1CCC(C(=N)N)CC1)C1CCCCC1` (stereo partly drawn) [Example 116, 2-(4-Carbamimidoyl-benzyl)-N-{(S)-[(4-carbamimidoyl-cyclohexylmethyl)-carbamoyl]-cyclohexyl-methyl}-N′,N′-dimethyl-malonamide] is 2 nM; for `CN(C)C(=N)c1ccc(CC(C(=O)NC(C(=O)NCC2CCC(C(=N)N(C)C)CC2)C2CCCCC2)C(=O)N(C)C)cc1` [Example 120, N-(S)-(Cyclohexyl-{[4-(N,N-dimethyl-carbamimidoyl)-cyclohexylmethyl]-carbamoyl}-methyl)-2-[4-(N,N-dimethyl-carbamimidoyl)-benzyl]-N′,N′-dimethyl-malonamide] it is 6 nM.
For “TAP: tick anticoagulant peptide, isolated from the tick Ornithodoros moubata, contains 60 amino acids; inhibitor of factor Xa (YNRLCIKPRDWIDECDSNEGGERAYFRNGKGGCDSFWICPEDHTGADYYSSYRDCFNACI; UniProt P17726 1-60, looked up)”, the inhibition constant (Ki) in data set [2] is approximately 0.5 nM.
Take heparin: in data set [3], the “thrombin inactivated faster than factor Xa” value is given as “approximately 100 times”.
